Test results published in US7390910B2, “Compounds for treating tumors” (priority 2003, dated 2008).
pIC50: −log10 of the molar value.

How the values were obtained:
KB cells = assay: cells; type: cell-based; conditions: 3 days, SRB
Description: (§1) Cell Survival Assay: Standard Pharmacological Test Procedure. […] Compounds are incubated with cells for 3 days.

KBV1 = assay: cells; type: cell-based; conditions: for inhibition at 3 µM: KB-V1, 3000 nM; for pIC50: 3 days, SRB
Description: as §1

KB85 = assay: cells; type: cell-based; conditions: for pIC50: 3 days, SRB
Description: as §1

[1] = tested on: bovine microtubule-associated protein (MAP)-rich tubulin; type: biochemical; conditions: 0.3 uM
Procedure, shortened: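 This in vitro polymerization assay used bovine tubulin rich in microtubule-associated proteins, prepared at 1.5 mg/ml in GPEM (PEM buffer containing 1 mM GTP) and cleared by a 12,000×g spin. Tubulin solution (100 μl/well) was dispensed onto duplicate 10 μl test samples. Control wells held 0.3% DMSO. A SpectraMax Plus reader recorded turbidity at 340 nm every minute over 60 min at 24° C.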

Colo205 = assay: Cell survival assay (SRB), Colo205; type: cell-based; conditions: Colo205 cells, 3 days
Description: as §1

| Compound | pIC50 (KB cells; Homo sapiens, KB, 72 h) | inhibition at 3 µM (KBV1; Homo sapiens) [%] | pIC50 (KB85; 72 h) | Tubulin Polym. % inhibition at 0.3 uM [1] [%] | pIC50 (Colo205; Homo sapiens, COLO 205, 72 h) | pIC50 (KBV1; Homo sapiens, KB-V1, 72 h) | other results |
| --- | --- | --- | --- | --- | --- | --- | --- |
| CN[C@H](C(=O)N[C@H](C(=O)N(C)[C@H](/C=C(\C)C(=O)NO)C(C)C)C(C)(C)C)C(C)(C)c1ccccc1 [Example 25, (E,4S)-4-[((2S)-3,3-dimethyl-2-{[(2S)-3-methyl-2-(methylamino)-3-phenylbutanoyl]amino}butanoyl)(methyl)amino]-N-hydroxy-2,5-dimethyl-2-hexenamide] | 7.41 | 7 | 6.64 | 75 | 7.70 | – | – |
| C/C(=C\[C@H](C(C)C)N(C)C(=O)[C@@H](NC(=O)C(C(C)(C)c1ccccc1)S(C)(=O)=O)C(C)(C)C)C(=O)O (stereo partly drawn) [Example 103, (E,4S)-4-[((2S)-3,3-dimethyl-2-{[3-methyl-2-methylsulfonyl-3-phenylbutanoyl]amino}butanoyl)(methyl)amino]-2,5-dimethyl-2-hexenoic acid] | 5.76 | 5 | 5.78 | 80 | 6.12 | – | inhibition at 3 µM (KB85; 3000 nM): 30% |
| C/C(=C\[C@H](C(C)C)N(C)C(=O)[C@@H](NC(=O)C(Cc1ccccc1)C(C)(C)c1ccccc1)C(C)(C)C)C(=O)O (stereo partly drawn) [Example 96, (E,4S)-4-[((2S)-3,3-dimethyl-2-{[3-methyl-2-benzyl-3-phenylbutanoyl]amino}butanoyl)(methyl)amino]-2,5-dimethyl-2-hexenoic acid] | 6.07 | 11 | 5.95 | 46 | 6.47 | 5.58 | – |
| CO[C@@H](C(=O)N[C@H](C(=O)N(C)[C@H](/C=C(\C)C(=O)O)C(C)C)C(C)(C)C)C(C)(C)c1ccccc1 [Example 106, (E,4S)-4-[{N-[(2R)-2-methoxy-3-methyl-3-phenylbutanoyl]-3-methyl-L-valyl}(methyl)amino]-2,5-dimethyl-2-hexenoic acid] | 5.85 | 22 | 5.91 | 54 | 6.03 | – | – |
| (E,4S)-4-[((2S)-2-{[(2S)-2-azido-3-methyl-3-phenylbutanoyl]amino}-3,3-dimethylbutanoyl)(methyl)amino]-2,5-dimethyl-2-hexenoic acid and (E,4S)-4-[((2S)-2-{[(2R)-2-azido-3-methyl-3-phenylbutanoyl]amino}-3,3-dimethylbutanoyl)(methyl)amino]-2,5-dimethyl-2-hexenoic acid [Example 94] | – | – | – | 73 | – | – | pIC50 (KB cells): 5.89; KBV1 % inhibition @ 3000 nM (KBV1; 3000 nM): 30%(2); pIC50 (KB85): 5.88; pIC50 (Colo205): 6.34 |
| CCC(C(=O)N[C@H](C(=O)N(C)[C@H](/C=C(\C)C(=O)O)C(C)C)C(C)(C)C)C(C)(C)c1ccccc1 (stereo partly drawn) [Example 100, (E,4S)-4-[((2S)-3,3-dimethyl-2-{[3-methyl-2-ethyl-3-phenylbutanoyl]amino}butanoyl)(methyl)amino]-2,5-dimethyl-2-hexenoic acid] | 6.02 | – | 5.94 | 54 | 6.72 | 5.28 | – |
| C/C(=C\[C@H](C(C)C)N(C)C(=O)[C@@H](NC(=O)[C@@H](O)C(C)(C)c1ccccc1)C(C)(C)C)C(=O)O [Example 107, (E,4S)-4-[{N-[(2S)-2-hydroxy-3-methyl-3-phenylbutanoyl]-3-methyl-L-valyl}(methyl)amino]-2,5-dimethyl-2-hexenoic acid] | < 5.52 | – | < 5.52 | 21 | < 6.00 | < 5.52 | – |
| C=CCC(C(=O)N[C@H](C(=O)N(C)[C@H](/C=C(\C)C(=O)OCC)C(C)C)C(C)(C)C)C(C)(C)c1ccccc1 (stereo partly drawn) [Example 97, Ethyl (E,4S)-4-[((2S)-3,3-dimethyl-2-{[3-methyl-2-allyl-3-phenylbutanoyl]amino}butanoyl)(methyl)amino]-2,5-dimethyl-2-hexenoate] | 5.72 | – | 5.48 | – | < 6.00 | – | KBV1 % inhibition @6000 (KBV1): 17%@6000 |
| C/C(=C\[C@H](C(C)C)N(C)C(=O)[C@@H](NC(=O)[C@H](O)C(C)(C)c1ccccc1)C(C)(C)C)C(=O)O [Example 108, (E,4S)-4-[{N-[(2R)-2-hydroxy-3-methyl-3-phenylbutanoyl]-3-methyl-L-valyl}(methyl)amino]-2,5-dimethyl-2-hexenoic acid] | < 5.52 | – | < 5.52 | 21 | < 6.00 | < 5.52 | – |
| CCOC(=O)/C(C)=C/[C@H](C(C)C)N(C)C(=O)[C@@H](NC(=O)C(Cc1ccccc1)C(C)(C)c1ccccc1)C(C)(C)C (stereo partly drawn) [Example 95, Ethyl (E,4S)-4-[((2S)-3,3-dimethyl-2-{[3-methyl-2-(benzyl)-3-phenylbutanoyl]amino}butanoyl)(methyl)amino]-2,5-dimethyl-2-hexenoate] | 6.24 | 15 | 6.12 | – | < 6.00 | – | – |
| CCOC(=O)/C(C)=C/[C@H](C(C)C)N(C)C(=O)[C@@H](NC(=O)C(SC)C(C)(C)c1ccccc1)C(C)(C)C (stereo partly drawn) [Example 101, Ethyl (E,4S)-4-[((2S)-3,3-dimethyl-2-{[3-methyl-2-methylsulfanyl-3-phenylbutanoyl]amino}butanoyl)(methyl)amino]-2,5-dimethyl-2-hexenoate] | 5.96 | – | 5.74 | – | < 6.00 | 5.34 | – |
| CCOC(=O)/C(C)=C/[C@H](C(C)C)N(C)C(=O)[C@@H](NC(=O)C(OC)C(C)(C)c1ccccc1)C(C)(C)C (stereo partly drawn) [Example 104, Ethyl (E,4S)-4-[{(2S)-2-[(2-methoxy-3-methyl-3-phenylbutanoyl)amino]-3,3-dimethylbutanoyl}(methyl)amino]-2,5-dimethyl-2-hexenoate] | 5.76 | – | 5.67 | 38 | < 6.00 | 5.62 | pIC50 (KB cells): 5.52; pIC50 (KBV1): 5.52; pIC50 (KB85): 5.52 |
| CN[C@H](C(=O)N[C@H](C(=O)N(C)[C@H](/C=C(\C)C=O)C(C)C)C(C)(C)C)C(C)(C)c1ccc([S+](C)C)cc1.O=C(O)C(F)(F)F [Example 83, 4-(dimethylsulfonio)-N,β,β-trimethyl-L-phenylalanyl-N^1-[(1S,2E)-1-isopropyl-3-methyl-4-oxo-2-butenyl]-N^1,3-dimethyl-L-valinamide trifluoroacetic acid] | – | – | – | 0 | 7.34 | 5.62 | pIC50 (KBV1; trifluoroacetic acid): < 5.52 |
| C=CCC(C(=O)N[C@H](C(=O)N(C)[C@H](/C=C(\C)C(=O)O)C(C)C)C(C)(C)C)C(C)(C)c1ccccc1 (stereo partly drawn) [Example 98, (E,4S)-4-[((2S)-3,3-dimethyl-2-{[3-methyl-2-allyl-3-phenylbutanoyl]amino}butanoyl)(methyl)amino]-2,5-dimethyl-2-hexenoic acid] | 5.94 | – | 5.92 | 63 | 6.57 | – | KBV1 % inhibition @6000 (KBV1): 42%@6000 |
| CCOC(=O)/C(C)=C/[C@H](C(C)C)N(C)C(=O)[C@@H](NC(=O)C(CC)C(C)(C)c1ccccc1)C(C)(C)C (stereo partly drawn) [Example 99, Ethyl (E,4S)-4-[((2S)-3,3-dimethyl-2-{[3-methyl-2-ethyl-3-phenylbutanoyl]amino}butanoyl)(methyl)amino]-2,5-dimethyl-2-hexenoate] | 5.46 | – | 5.44 | – | < 6.00 | – | KBV1 % inhibition @6000 (KBV1): 16%@6000 |
| CN[C@H](C(=O)N[C@H](C(=O)N(C)[C@H](/C=C(\C)C(=O)N1CCN(C)CC1)C(C)C)C(C)(C)C)C(C)(C)c1ccc(C)c(C)c1 [Example 7, N,β,β,3,4-Pentamethyl-L-phenylalanyl-N^1-[(1S,2E)-1-isopropyl-3-methyl-4-(4-methylpiperazin-1-yl)-4-oxobut-2-enyl]-N^1,3-dimethyl-L-valinamide] | 7.33 | – | 7.17 | 32 | – | 5.66 | – |
| CN[C@H](C(=O)N[C@H](C(=O)N(C)[C@H](/C=C(\C)C(=O)N1CCN(Cc2ccccc2)CC1)C(C)C)C(C)(C)C)C(C)(C)c1ccccc1 [Example 39, N,β,β-trimethyl-L-phenylalanyl-N^1-[(1S,2E)-4-(4-benzylpiperazin-1-yl)-1-isopropyl-3-methyl-4-oxobut-2-enyl]-N^1,3-dimethyl-L-valinamide] | 7.82 | – | 7.66 | 29 | – | 6.44 | – |
| CN[C@H](C(=O)N[C@H](C(=O)N(C)[C@H](/C=C(\C)C(=O)N1CCC[C@H]1C(=O)N1CCC[C@H]1C(=O)NCc1ccccc1)C(C)C)C(C)(C)C)C(C)(C)c1ccc(C)c(C)c1 [Example 10, 1-{(2E,4S)-2,5-Dimethyl-4-[methyl(N,β,β,3,4-pentamethyl-L-phenylalanyl-3-methyl-L-valyl)amino]hex-2-enoyl}-L-prolyl-N-benzyl-L-prolinamide] | 8.82 | – | 7.71 | 42 | – | 5.67 | – |
| CN[C@@H](C(=O)N[C@H](C(=O)N(C)[C@H](/C=C(\C)C(=O)N1CCOCC1)C(C)C)C(C)(C)C)C(C)(C)c1ccc(C)c(C)c1 [Example 4, N,β,β,3,4-Pentamethyl-D-phenylalanyl-N^1[(1S,2E)-1-isopropyl-3-methyl-4-morpholin-4-yl-4-oxobut-2-enyl]-N^1,3-dimethyl-L-valinamide] | 6.43 | 42 | 6.27 | 61 | – | – | – |
